Where “and” joins values, the source holds several entries; their conditions need not be identical. Identical values can stand only once. Like-named read-outs stand apart in the source and are kept apart here.
Experiments:
3D HepaRG mono-culture = assay: APAP toxicity assay, cell viability by ATP (Cell titer Glo); assay type: cell-based; conditions: Homo sapiens, 0% DMSO, read-out: APAP EC50 values (±stdev)
Experimental: (§1) APAP toxicity assay was performed in 3D HepaRG/co-culture as well as in 3D HepaRG monoculture. For 24 h, starting at day 20, cells were exposed to a range of APAP concentrations between 0.5 and 80 mM, keeping cells with the solvent (0.1% DMSO) as a control. For some experiments the culture medium was supplemented with 2.5 mM valproic acid (VPA sodium salt, Sigma-Aldrich) or with cytokine mixture (Raicevic et al.,2012)-interleukin (IL)-1β 25 ng/mL (Peprotech, Rocky Hill, N.J., USA), interferon (IFN)-γ 10^3 U/mL, tumor necrosis factor (TNF)-a 50 ng/mL, and IFN-α 3·10^3 U/mL (all from Prospec, Inc., East Brunswick, N.J., USA). For the recovery assay, at the end of APAP incubation, cells were washed using HepaRG culture 0% DMSO medium and kept in the same medium for 3 more days.
At the end of the incubation period, 5 spheroids per condition were pooled and lysed for RNA analyses, while the remaining spheroids per condition were lysed individually for viability analysis using the Cell titer Glo kit (Promega) for ATP measurements following the instructions of the manufacturer.

[1] = system: hepatic stellate cells isolated from mice; assay: Acute and chronic APAP liver injury model, HSC activation markers and collagen deposition; assay type: in vivo, mouse
From the text: Male balbC and C57BL/6 mice were used for all experiments; animals were housed in a controlled environment with free access to chow and water. The experimental protocol was approved by the institutional Animal Care and Use Committee of Vrije Universiteit Brussel, permit number 14-212-2, and National Institutes of Health principles of laboratory animal care (NIH publication 86-23, revised 1995) were followed. Acute and chronic models for liver fibrosis were used on mice of age 7-8 weeks. Acute injury was induced by a single dose of Acetaminophen (APAP) of 50; 150; 300 or 500 mg APAP/kg weight. Chronic injury was induced by repeated injections of APAP twice per week for 4 weeks. Hepatic stellate cells were collected at the end of the treatment. Isolation of stellate cells was done using FACS, based on UV-positivity. After isolation cells were not cultured, but immediately used for mRNA analysis. […] For quantitative real-time polymerase chain reaction (qPCR), GoTaq QPCR Master Mix with BRYTE green (Promega, Madison, Wis.) was used, subjected to qPCR in a 7500 real time PCR system and analysed using System SDS software v2.0.5 (Applied Biosystems), using GAPDH for normalisation. Reliability of GAPDH as house-keeping gene was determined using Normfinder (Andersen et al., 2004; Cancer Res 64(15): 5245-5250) to produce the ΔCT values. […]

3D HepaRG/HSC co-culture = assay: Single and repeated exposure, gene expression of HSC activation markers; assay type: cell-based, human; conditions: for HSC activation (up-regulation of activation markers, mRNA): serum-free medium
Experimental: Single and repeated exposure. For the single and repeated compound exposure cell spheroids (3D HepaRG/HSC, 3D HepaRG and 3D HSC) were exposed respectively on day 20 for 24 h or every second day from day 8 to day 21 in serum-free medium with no additional solvent. Cells were exposed to a range of 8 concentrations between 0.5 and 80 mM for APAP single-dose, 0.125 and 40 mM for APAP repeated-dose, 0.3 and 500 μM Allyl Alcohol (AA, Sigma-Aldrich), 1.9 and 1000 μM Methotrexate (MTX, Pfizer, NY, USA). For the recovery assay, on day 21, cells were washed using serum-free medium and kept for 3 extra days.
For the cell culture samples, total RNA from 4-6 pooled spheroids was extracted from cells using the RNeasy Micro Kit (Qiagen, Venlo, Limburg, Netherlands). In the mouse assays, sorted HSC from different mice were lysed separately. Total RNA from tissue cultured cells was extracted using ReliaPrep RNA Cell Miniprep System (Promega).
Reverse-transcription using the Revert Aid Kit (ThermoFisher Scientific, Waltham, Massachusetts, USA) allowed conversion of RNA to cDNA. The RT reaction was performed at 25° C. for ten minutes followed by 30 minutes at 50° C. For quantitative real-time polymerase chain reaction (qPCR), GoTaq QPCR Master Mix with BRYTE green (Promega) was used, subjected to qPCR in a 7500 real time PCR system and analysed using System SDS software v2.0.5 (Applied Biosystems, Waltham, Mass., USA), using GAPDH for normalisation. Reliability of GAPDH as house-keeping gene was determined using Normfinder (Anderson et al., 2004). Fold change differences between samples were determined using the comparative Ct (δδCt) method. The expression level of different targets, relative to GAPDH (δCt) and relative to the calibrator, was given by 2^−δδCt.

3D HSC mono-culture [2] = assay: mRNA expression of HSC activation markers (qPCR) after APAP incubation; assay type: cell-based, human; conditions: 20 mM APAP, 24h, Assays 1-3
3D HSC mono-culture [3] = assay: APAP toxicity on HSC; assay type: cell-based, human; conditions: APAP 0.5-80 mM, 24 h
Experimental: as §1, with “days. […]” for “days.”
We investigated the effect of APAP on the different cell types by measurement of the two major energy producing pathways assessing at the mitochondrial functional level. For that purpose, we measured the Oxygen Consumption Rate (OCR) and Glycolisis (through proton production—Extracellular Acidification rate, ECAR) using the XF Cell Mito Stress Test Kit (Seahorse Biosciences) 0, 12 and 24 hours of APAP incubation in the three 3D cultures. […]

For `CC(=O)Nc1ccc(O)cc1` [APAP, Acetaminophen], the EC50 (3D HepaRG mono-culture; 144 h, Day 6/7, current study) was 11.6 mM, the EC50 (3D HepaRG mono-culture; 504 h, Day 21/22, current study) was 11.6 ± 2.15 mM and the “activation marker gene expression in isolated HSC” value ([1]; acute and chronic exposure, doses equal or higher than 300 mg/kg weight) was “significantly increase of the activation marker gene expression”. For the same molecule, the “fibrosis profile at the protein level (collagen)” value ([1]; chronic exposure (4 weeks)) was “deposition of collagen around the portal area with septa formation”, the “concentration of peak HSC activation” value (3D HepaRG/HSC co-culture; repeated exposure) was 5 to 10 mM and the “HSC activation (up-regulation of activation markers, mRNA)” value (3D HepaRG/HSC co-culture; repeated exposure) was “toxicity and HSC activation both in single and repeated-exposure”. For the same molecule, the “concentration of peak HSC activation” value (3D HepaRG/HSC co-culture; single exposure) was 20 to 40 mM, the “recovery of HSC 3 days after compound washout” value (3D HepaRG/HSC co-culture; single exposure) was “observed” and the “HSC activation (up-regulation of activation markers, mRNA)” value (3D HepaRG/HSC co-culture; single exposure 24 h) was “toxicity and HSC activation both in single and repeated-exposure”. The “Loxl2 mRNA fold increase” value (3D HSC mono-culture [2]) was 1.13 +/− 0.05 fold and 0.70 +/− 0.23 fold and 0.85 +/− 0.86 fold and the “toxic effect on the HSC” value (3D HSC mono-culture [3]) was “only observed at the highest concentrations”.

— patent publication US20170166870A1, “HUMAN HEPATIC 3D CO-CULTURE MODEL AND USES THEREOF” (Vrije Universiteit Brussel, priority 2014, published 2017)
